ChEMBL document CHEMBL4483862, “Open-source discovery of chemical leads for next-generation chemoprotective antimalarials” (2018)

Test system: Plasmodium berghei
Assay: Luciferase/luciferin-expressing antifolate-resistant parasites were used to infect a culture of HepG2 cells that were pre-incubated with compounds. Infected hepatocytes emit light due to the luciferase reaction. Assay results are presented as the percent inhibition of light emission compared to control. […]
Assay type: functional
Conditions: sporozoite; for IC90: read-out: LUCIFERASE INFECTION ASSAY - IC90

Structure (SMILES)	IC90	other results
O=c1c(Cl)c2oc3ccccc3nc-2c2ccccc12	> 11.7 µM	IC50 (HEPG2TOX_HILL_SLOPE 6.69, HEPG2TOX_R_SQUARED 0.668, PBLUC_HILL_SLOPE 2.65, PBLUC_R_SQUARED 0.745, read-out: LUCIFERASE INFECTION ASSAY - IC50): 5.79 µM
Cc1c(C)c(C)c2[nH]c(S)nc2c1C	> 16 µM	IC50 (HEPG2TOX_HILL_SLOPE 6.45, HEPG2TOX_R_SQUARED 0.505, PBLUC_HILL_SLOPE 19.5, PBLUC_R_SQUARED 0.258, read-out: LUCIFERASE INFECTION ASSAY - IC50): 15.4 µM
NC(Cc1ccc(Cl)cc1)c1csc(Nc2ncccn2)n1 (stereo unspecified)	5.31 µM	IC50 (HEPG2TOX_HILL_SLOPE 6.68, HEPG2TOX_R_SQUARED 0.347, PBLUC_HILL_SLOPE 658, PBLUC_R_SQUARED 0.395, read-out: LUCIFERASE INFECTION ASSAY - IC50): 5.29 µM
CSc1sc(C(=O)NN=C(C)C)c2c1C(O)CCC2 (stereo unspecified)	> 11.1 µM	IC50 (HEPG2TOX_HILL_SLOPE 6.67, HEPG2TOX_R_SQUARED 0.767, PBLUC_HILL_SLOPE 1.8, PBLUC_R_SQUARED 0.584, read-out: LUCIFERASE INFECTION ASSAY - IC50): 10.2 µM
CCOc1cc(/C=C/c2nc3cc(C)c(C)cc3s2)ccc1O	> 10 µM	IC50 (HEPG2TOX_HILL_SLOPE 6.63, HEPG2TOX_R_SQUARED 0.787, PBLUC_HILL_SLOPE 3.12, PBLUC_R_SQUARED 0.499, read-out: LUCIFERASE INFECTION ASSAY - IC50): 6.52 µM
CCCCNC(=O)c1c(NC(=O)C(C)Oc2ccccc2)nc2ccc(C)cn12 (stereo unspecified)	> 8.37 µM	IC50 (HEPG2TOX_HILL_SLOPE 6.71, HEPG2TOX_R_SQUARED 0.423, PBLUC_HILL_SLOPE 12, PBLUC_R_SQUARED 0.638, read-out: LUCIFERASE INFECTION ASSAY - IC50): 7.31 µM
O=S(=O)(c1ccc2oc(Nc3ccc(Cl)c(C(F)(F)F)c3)nc2c1)N1CCOCC1	> 10 µM	IC50 (HEPG2TOX_HILL_SLOPE 6.56, HEPG2TOX_R_SQUARED 0.393, PBLUC_HILL_SLOPE 2.74, PBLUC_R_SQUARED 0.701, read-out: LUCIFERASE INFECTION ASSAY - IC50): 4.51 µM
O=C(Nc1ccc(OC(F)(F)F)cc1)Nc1ccc(Sc2ccc(Cl)cc2)nc1	> 7.5 µM	IC50 (HEPG2TOX_HILL_SLOPE 6.6, HEPG2TOX_R_SQUARED 0.793, PBLUC_HILL_SLOPE 3.54, PBLUC_R_SQUARED 0.066, read-out: LUCIFERASE INFECTION ASSAY - IC50): 6.05 µM
COC(=O)c1ccc(C(=O)Nc2nc3ccc(C)cn3c2C(=O)NC2CCCCC2)cc1	> 7.6 µM	IC50 (HEPG2TOX_HILL_SLOPE 6.71, HEPG2TOX_R_SQUARED 0.117, PBLUC_HILL_SLOPE 12.8, PBLUC_R_SQUARED 0.0177, read-out: LUCIFERASE INFECTION ASSAY - IC50): 7.03 µM
CCc1cccc2c(/C=C(\C#N)c3nc4ccccc4[nH]3)c[nH]c12	> 10 µM	IC50 (HEPG2TOX_HILL_SLOPE 6.57, HEPG2TOX_R_SQUARED 0.521, read-out: LUCIFERASE INFECTION ASSAY - IC50): > 10 µM
COc1ccc(Cl)cc1C(=O)NCCC(c1ccccc1)c1ccccc1	> 8.69 µM	IC50 (HEPG2TOX_HILL_SLOPE 6.56, HEPG2TOX_R_SQUARED 0.368, PBLUC_HILL_SLOPE 3.72, PBLUC_R_SQUARED 0.314, read-out: LUCIFERASE INFECTION ASSAY - IC50): 5.39 µM
Cn1cc(CN2CCc3c(c(C(=O)NCc4nccs4)nn3Cc3ccccc3)C2)c2ccccc21	5.73 µM	IC50 (HEPG2TOX_HILL_SLOPE 6.66, HEPG2TOX_R_SQUARED 0.254, PBLUC_HILL_SLOPE 4.38, PBLUC_R_SQUARED 0.819, read-out: LUCIFERASE INFECTION ASSAY - IC50): 3.47 µM
CNc1ccccc1C(C)(C)c1cc(NC(=O)C2CCCC2)sc1C(=O)c1ccc(Cl)cc1	> 10 µM	IC50 (HEPG2TOX_HILL_SLOPE 6.51, HEPG2TOX_R_SQUARED 0.0707, read-out: LUCIFERASE INFECTION ASSAY - IC50): > 10 µM
CC1C/C(=N\Nc2cc(Cl)cc(Cl)c2)c2cc(Cl)ccc2S1 (stereo unspecified)	> 8.88 µM	IC50 (HEPG2TOX_HILL_SLOPE 6.52, HEPG2TOX_R_SQUARED 0.251, PBLUC_HILL_SLOPE 17, PBLUC_R_SQUARED 0.35, read-out: LUCIFERASE INFECTION ASSAY - IC50): 8.47 µM
CCOC(=O)c1ccc(N2C(=O)c3ccccc3C(C=NNC(=O)c3ccoc3C)C2=O)c(Cl)c1 (stereo unspecified)	> 10 µM	IC50 (HEPG2TOX_HILL_SLOPE 6.47, HEPG2TOX_R_SQUARED 0.622, PBLUC_HILL_SLOPE 28.4, PBLUC_R_SQUARED 0.423, read-out: LUCIFERASE INFECTION ASSAY - IC50): 9.76 µM
Fc1ccc2c(c1)/C(=N\Nc1nc3ccccc3[nH]1)CCS2	> 10 µM	IC50 (HEPG2TOX_HILL_SLOPE 6.62, HEPG2TOX_R_SQUARED 0.538, PBLUC_HILL_SLOPE 9.53, PBLUC_R_SQUARED 0.0234, read-out: LUCIFERASE INFECTION ASSAY - IC50): 8.49 µM
CNc1nc2cnc(Nc3cccc(C)c3)cc2n1Cc1ccc(OC)c(OC)c1	> 10 µM	IC50 (HEPG2TOX_HILL_SLOPE 6.56, HEPG2TOX_R_SQUARED 0.678, read-out: LUCIFERASE INFECTION ASSAY - IC50): > 10 µM

Structure (SMILES)	IC90	other results
O=C(/C=C/c1ccccc1)c1ccc(-n2nncc2-c2ccccc2)cc1	> 10 µM	IC50 (HEPG2TOX_HILL_SLOPE 6.47, HEPG2TOX_R_SQUARED 0.294, read-out: LUCIFERASE INFECTION ASSAY - IC50): > 10 µM
CC(Oc1ccc(C(=O)c2ccc(F)cc2)cc1)C(=O)NC1(C#N)CCCCC1 (stereo unspecified)	> 10 µM	IC50 (HEPG2TOX_HILL_SLOPE 6.49, HEPG2TOX_R_SQUARED 0.548, PBLUC_HILL_SLOPE 2.92, PBLUC_R_SQUARED 0.383, read-out: LUCIFERASE INFECTION ASSAY - IC50): 7.61 µM
Cn1ccnc1S/C(=C/C=C(C#N)C#N)c1ccc(Cl)cc1	> 10.1 µM	IC50 (HEPG2TOX_HILL_SLOPE 6.6, HEPG2TOX_R_SQUARED 0.647, PBLUC_HILL_SLOPE 3.43, PBLUC_R_SQUARED 0.702, read-out: LUCIFERASE INFECTION ASSAY - IC50): 5.57 µM
COc1ccccc1C(CCNCc1ccc(F)cc1)c1ccco1 (stereo unspecified)	1.66 µM	IC50 (HEPG2TOX_HILL_SLOPE 6.69, HEPG2TOX_R_SQUARED 0.485, PBLUC_HILL_SLOPE 6.64, PBLUC_R_SQUARED 0.691, read-out: LUCIFERASE INFECTION ASSAY - IC50): 1.19 µM
COc1ccc(Nc2cc3c(cn2)cc(-c2ccc(C(=O)N(C)C)cc2)n3Cc2ccccc2)cc1	9.34 µM	IC50 (HEPG2TOX_HILL_SLOPE 6.65, HEPG2TOX_R_SQUARED 0.257, PBLUC_HILL_SLOPE 26.3, PBLUC_R_SQUARED 0.641, read-out: LUCIFERASE INFECTION ASSAY - IC50): 8.59 µM
Cc1ccc(-c2nc(NC(=O)c3ccn(C)c(=O)c3)sc2-c2ccc(C)cc2)cc1	5.86 µM	IC50 (HEPG2TOX_HILL_SLOPE 6.56, HEPG2TOX_R_SQUARED 0.678, PBLUC_HILL_SLOPE 73.6, 3.22, PBLUC_R_SQUARED 0.772, 0.348, read-out: LUCIFERASE INFECTION ASSAY - IC50): 3.76 µM
CC(C)(C)OC(=O)N1CCc2nc(NC(=O)c3ccc4nc[nH]c4c3)sc2C1	> 10 µM	IC50 (HEPG2TOX_HILL_SLOPE 6.67, HEPG2TOX_R_SQUARED 0.917, read-out: LUCIFERASE INFECTION ASSAY - IC50): > 10 µM
CC1=CC(=O)N(c2ccc(F)c(Cl)c2)C1=O	> 13.8 µM	IC50 (HEPG2TOX_HILL_SLOPE 6.55, HEPG2TOX_R_SQUARED 0.196, PBLUC_HILL_SLOPE 2.8, PBLUC_R_SQUARED 0.561, read-out: LUCIFERASE INFECTION ASSAY - IC50): 8.94 µM
NC(=O)c1c(NC(=O)NCc2cccnc2)sc2c1CCC2	> 10.4 µM	IC50 (HEPG2TOX_HILL_SLOPE 6.58, HEPG2TOX_R_SQUARED 0.0674, read-out: LUCIFERASE INFECTION ASSAY - IC50): > 10.4 µM
Oc1ccccc1/C=N/Nc1cccc(C(F)(F)F)c1	> 11.8 µM	IC50 (HEPG2TOX_HILL_SLOPE 6.57, HEPG2TOX_R_SQUARED 0.439, PBLUC_HILL_SLOPE 2.9, PBLUC_R_SQUARED 0.288, read-out: LUCIFERASE INFECTION ASSAY - IC50): > 11.8 µM
NS(=O)(=O)c1ccc(CCNc2nn3c(-c4cccs4)cnc3s2)cc1	> 8.14 µM	IC50 (HEPG2TOX_HILL_SLOPE 6.48, HEPG2TOX_R_SQUARED 0.0577, read-out: LUCIFERASE INFECTION ASSAY - IC50): > 8.14 µM
CSc1nc2c(c(=O)n(C)c(=O)n2C)n1Cc1cccc(C(F)(F)F)c1	> 8.59 µM	IC50 (HEPG2TOX_HILL_SLOPE 6.71, HEPG2TOX_R_SQUARED 0.561, read-out: LUCIFERASE INFECTION ASSAY - IC50): > 8.59 µM
Cc1cc2cc(Nc3ccc(S(=O)(=O)NC(C)(C)C)cc3[N+](=O)[O-])ccc2[nH]1	> 10 µM	IC50 (HEPG2TOX_HILL_SLOPE 6.66, HEPG2TOX_R_SQUARED 0.674, PBLUC_HILL_SLOPE 2.21, PBLUC_R_SQUARED 0.655, read-out: LUCIFERASE INFECTION ASSAY - IC50): 4.89 µM
CCCCNC(=O)c1c(NC(=O)c2ccccc2C(F)(F)F)nc2ccccn12	8.11 µM	IC50 (HEPG2TOX_HILL_SLOPE 6.6, HEPG2TOX_R_SQUARED 0.306, PBLUC_HILL_SLOPE 21.5, PBLUC_R_SQUARED 0.838, read-out: LUCIFERASE INFECTION ASSAY - IC50): 7.33 µM
c1ccc(C(CCNCc2ccco2)c2ccco2)cc1 (stereo unspecified)	> 11.7 µM	IC50 (HEPG2TOX_HILL_SLOPE 6.65, HEPG2TOX_R_SQUARED 0.638, PBLUC_HILL_SLOPE 2.47, PBLUC_R_SQUARED 0.734, read-out: LUCIFERASE INFECTION ASSAY - IC50): 4.89 µM
Cc1cccc(-c2cc(C(=O)Nc3cccc(Cl)c3)[nH]n2)c1O	9.89 µM	IC50 (HEPG2TOX_HILL_SLOPE 6.46, HEPG2TOX_R_SQUARED 0.463, PBLUC_HILL_SLOPE 41.9, PBLUC_R_SQUARED 0.193, read-out: LUCIFERASE INFECTION ASSAY - IC50): 9.38 µM
